What is called AC50 is the midpoint of the concentration-response curve, whichever way the signal moves. A high value points to activity only at high concentration.

The target in assay [1] is Rod cGMP-specific 3',5'-cyclic phosphodiesterase subunit alpha (Homo sapiens, UniProt P16499). Format: functional.
The target of assay [2] is T1, Type-2 angiotensin II receptor (Homo sapiens, UniProt P50052).
T1 sequence (P50052 whole entry): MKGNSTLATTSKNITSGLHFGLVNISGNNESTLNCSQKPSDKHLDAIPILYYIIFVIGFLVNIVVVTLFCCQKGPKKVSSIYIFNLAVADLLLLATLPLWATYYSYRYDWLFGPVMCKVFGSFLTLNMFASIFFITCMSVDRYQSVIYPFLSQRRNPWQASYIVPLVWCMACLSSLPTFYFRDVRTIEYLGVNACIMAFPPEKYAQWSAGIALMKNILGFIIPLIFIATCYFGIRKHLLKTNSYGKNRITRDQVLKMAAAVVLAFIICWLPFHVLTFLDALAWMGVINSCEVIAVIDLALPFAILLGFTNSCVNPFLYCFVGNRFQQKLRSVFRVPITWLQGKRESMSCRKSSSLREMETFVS
Format: functional.

Assay [3] addresses T2, Oxysterols receptor LXR-beta (Homo sapiens, UniProt P55055).
T2 sequence (P55055 whole entry): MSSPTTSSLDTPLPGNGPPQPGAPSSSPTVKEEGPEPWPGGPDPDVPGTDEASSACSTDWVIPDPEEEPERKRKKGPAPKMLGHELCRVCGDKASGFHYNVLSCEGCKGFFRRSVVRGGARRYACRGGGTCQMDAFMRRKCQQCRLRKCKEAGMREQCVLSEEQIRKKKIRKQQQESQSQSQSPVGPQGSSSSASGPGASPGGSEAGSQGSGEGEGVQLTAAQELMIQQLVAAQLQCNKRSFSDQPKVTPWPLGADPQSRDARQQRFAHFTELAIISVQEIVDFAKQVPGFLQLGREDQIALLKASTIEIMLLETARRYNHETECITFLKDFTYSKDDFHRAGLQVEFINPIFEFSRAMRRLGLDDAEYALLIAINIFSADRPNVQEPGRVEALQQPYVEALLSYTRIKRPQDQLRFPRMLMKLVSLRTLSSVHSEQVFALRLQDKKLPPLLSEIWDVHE
Format: functional.

Assay [4] concerns the target T3, Oxysterols receptor LXR-alpha (Homo sapiens, UniProt Q13133).
T3 sequence (Q13133 whole entry): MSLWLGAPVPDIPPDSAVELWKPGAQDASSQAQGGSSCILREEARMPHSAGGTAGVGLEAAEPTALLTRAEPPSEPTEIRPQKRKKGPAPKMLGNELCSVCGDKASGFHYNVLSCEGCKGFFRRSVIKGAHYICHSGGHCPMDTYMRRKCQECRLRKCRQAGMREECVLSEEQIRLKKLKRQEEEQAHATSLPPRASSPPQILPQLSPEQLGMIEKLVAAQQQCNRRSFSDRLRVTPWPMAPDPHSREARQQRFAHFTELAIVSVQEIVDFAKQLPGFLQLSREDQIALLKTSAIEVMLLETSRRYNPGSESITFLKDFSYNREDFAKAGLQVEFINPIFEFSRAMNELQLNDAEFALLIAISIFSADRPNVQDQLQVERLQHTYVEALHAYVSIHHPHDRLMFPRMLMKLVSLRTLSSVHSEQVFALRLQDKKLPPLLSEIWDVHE
Format: functional.

Assay [5] deals with T3, Oxysterols receptor LXR-alpha. Format: functional. This is another data set of the same source.
Assay [6] concerns the target T4, Bile acid receptor (Homo sapiens, UniProt Q96RI1).
T4 sequence (Q96RI1 whole entry): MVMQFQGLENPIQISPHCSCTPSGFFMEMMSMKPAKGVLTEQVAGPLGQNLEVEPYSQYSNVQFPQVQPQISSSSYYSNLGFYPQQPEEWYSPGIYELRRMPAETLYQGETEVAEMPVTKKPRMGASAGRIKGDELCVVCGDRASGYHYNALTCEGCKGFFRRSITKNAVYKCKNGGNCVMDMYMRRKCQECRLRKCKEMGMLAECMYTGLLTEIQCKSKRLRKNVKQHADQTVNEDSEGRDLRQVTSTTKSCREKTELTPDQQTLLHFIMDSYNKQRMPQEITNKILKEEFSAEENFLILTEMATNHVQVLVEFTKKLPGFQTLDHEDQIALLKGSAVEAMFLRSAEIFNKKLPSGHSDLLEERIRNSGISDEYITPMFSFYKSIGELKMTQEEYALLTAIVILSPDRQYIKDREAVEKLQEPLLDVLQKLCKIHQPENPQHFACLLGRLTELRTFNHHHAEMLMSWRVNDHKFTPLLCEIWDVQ
Format: functional.

For assay [7], the target named is T4, Bile acid receptor. Format: functional. This is another data set of the same source.
The target of assay [8] is T5, Retinoic acid receptor beta (Homo sapiens, UniProt P10826).
T5 sequence (P10826 whole entry): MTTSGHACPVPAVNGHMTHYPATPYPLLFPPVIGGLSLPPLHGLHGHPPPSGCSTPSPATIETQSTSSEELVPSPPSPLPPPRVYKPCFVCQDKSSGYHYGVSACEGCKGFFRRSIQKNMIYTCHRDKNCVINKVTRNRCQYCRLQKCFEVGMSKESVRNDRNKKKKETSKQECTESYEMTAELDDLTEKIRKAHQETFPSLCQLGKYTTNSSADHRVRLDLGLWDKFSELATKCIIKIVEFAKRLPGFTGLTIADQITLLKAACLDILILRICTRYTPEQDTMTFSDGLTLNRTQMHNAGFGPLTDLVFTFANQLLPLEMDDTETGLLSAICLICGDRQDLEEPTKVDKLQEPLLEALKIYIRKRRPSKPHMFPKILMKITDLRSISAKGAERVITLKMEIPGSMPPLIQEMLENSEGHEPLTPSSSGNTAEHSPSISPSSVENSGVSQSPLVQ
Format: functional, cell-based.

Assay [9] concerns the target T5, Retinoic acid receptor beta. Format: functional, cell-based. The source holds these as a separate data set.

SMILES strings stand for the structures.
Also: assay procedure not described here.

Sequence of Rod cGMP-specific 3',5'-cyclic phosphodiesterase subunit alpha (P16499 whole entry): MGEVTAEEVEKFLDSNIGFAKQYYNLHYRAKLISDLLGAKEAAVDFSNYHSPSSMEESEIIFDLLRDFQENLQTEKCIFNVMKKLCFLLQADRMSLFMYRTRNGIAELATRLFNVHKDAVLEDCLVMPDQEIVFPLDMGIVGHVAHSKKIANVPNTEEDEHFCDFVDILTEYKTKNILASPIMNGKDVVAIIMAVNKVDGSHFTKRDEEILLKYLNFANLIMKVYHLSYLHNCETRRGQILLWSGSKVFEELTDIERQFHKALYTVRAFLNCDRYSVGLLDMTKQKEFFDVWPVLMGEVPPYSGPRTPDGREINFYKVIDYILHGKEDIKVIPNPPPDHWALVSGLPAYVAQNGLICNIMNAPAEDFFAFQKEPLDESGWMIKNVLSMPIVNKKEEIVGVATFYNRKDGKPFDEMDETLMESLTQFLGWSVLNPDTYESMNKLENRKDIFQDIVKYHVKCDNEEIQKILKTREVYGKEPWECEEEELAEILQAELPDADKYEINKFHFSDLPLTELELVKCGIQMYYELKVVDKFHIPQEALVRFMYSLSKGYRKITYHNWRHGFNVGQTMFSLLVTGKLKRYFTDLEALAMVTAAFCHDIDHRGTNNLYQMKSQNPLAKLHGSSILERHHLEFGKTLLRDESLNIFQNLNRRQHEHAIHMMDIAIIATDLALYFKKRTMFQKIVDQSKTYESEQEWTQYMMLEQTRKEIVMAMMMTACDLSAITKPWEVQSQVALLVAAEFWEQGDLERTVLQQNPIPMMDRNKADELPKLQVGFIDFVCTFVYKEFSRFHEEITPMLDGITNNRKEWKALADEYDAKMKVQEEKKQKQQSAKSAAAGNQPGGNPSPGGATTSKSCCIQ

In the case of `CCOC(=O)[C@H](CCc1ccccc1)N[C@@H](C)C(=O)N1Cc2ccccc2C[C@H]1C(=O)O`, in assay [1], the AC50 was greater than 10 µM.

`C[C@H](CS)C(=O)N1CCC[C@H]1C(=O)O` [CAPTOPRIL] gave an AC50 in [2] greater than 100 µM.

Turning to `CC(C)/N=c1\cc2n(-c3ccc(Cl)cc3)c3ccccc3nc-2cc1Nc1ccc(Cl)cc1` [CLOFAZIMINE], the AC50 in assay [3] is greater than 30 µM; in assay [4], greater than 30 µM; in [5], greater than 30 µM; on Bile acid receptor [6], greater than 30 µM; on Bile acid receptor [7] it was 16 µM; in assay [8] it was greater than 30 µM. In assay [9], this compound came in with an AC50 greater than 30 µM.
